The values below come from US12486259B2, “FXR agonist having pyrazine structure, and preparation method and use” (JIANGSU TASLY DIYI PHARMACEUTICAL CO., LTD., priority 2020, dated 2025).

One series deals with T1, FXR (Homo sapiens, UniProt Q96RI1).
T1 construct: expressed in transfected cells
T1 sequence (Q96RI1 1-486): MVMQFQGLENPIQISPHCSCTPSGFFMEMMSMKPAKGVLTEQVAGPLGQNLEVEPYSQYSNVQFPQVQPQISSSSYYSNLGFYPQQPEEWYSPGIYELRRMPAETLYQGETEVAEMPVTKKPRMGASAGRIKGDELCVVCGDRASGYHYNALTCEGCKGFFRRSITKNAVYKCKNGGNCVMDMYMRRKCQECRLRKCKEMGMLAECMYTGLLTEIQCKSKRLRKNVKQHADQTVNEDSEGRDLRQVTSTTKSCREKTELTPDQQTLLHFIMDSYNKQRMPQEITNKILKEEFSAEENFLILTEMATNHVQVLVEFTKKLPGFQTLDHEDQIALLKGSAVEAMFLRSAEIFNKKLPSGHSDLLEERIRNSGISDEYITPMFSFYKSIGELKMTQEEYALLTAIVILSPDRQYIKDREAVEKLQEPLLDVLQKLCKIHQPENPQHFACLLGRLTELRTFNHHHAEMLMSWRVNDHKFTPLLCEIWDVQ
Put plainly: Intracellular FXR-TR-FRET experiment (pBIND-FXR / pG5Luc dual luciferase). It counts as cell-based. The note with it: cellular level, 18 hours with compound. The protocol: • 1. Cell culture: a, trypsinize dishes and seed cells are taken with appropriate density in 10 ml of complete […] at 37° C. b. Cells are incubated for 24 hours in 5% CO2 and humidified. • 2. Cell inoculation and transfection: FuGENE HD transfection reagent is used as a transfection reagent. • a. The transfection mixture is prepared according to the following procedure:
• b. The tube is tapped vigorously to mix the contents. The mixture is incubated at room temperature for 15 minutes. • c. Discs are trypsinized and cell density is determined. • d. The cytolymph is diluted to the desired volume at a density of 500,000 cells/ml (100 ul/well for 96-well plate). • e. The required volume of previously prepared transfection mixture is added to both cytolymph, and then 100 ul/well of cytolymph is dispensed onto the assay plate. • f. The assay plate is incubated under humidified conditions at 37° C., 5% CO2 for 24 hours. • 3. Compound preparation: • a. Compound stocks are prepared with a FXR working concentration of 10 mM and then diluted 3-fold in 100% DMSO. • b. 10 ul compound is added to 90 ul complete medium. • c. 5 ul compound solution is added to each well. • d. The plate is incubated at 37° C., 5% CO2 and humidified for 18 hours. • 4. Dual luciferase assay: the firefly and Renilla luciferase signals are analyzed by Dual Luciferase Reporter Assay System from Promega. Envision is used as a photometer. • 5. Result calculation: data values are normalized by dividing the firefly signal by the Renilla signal. “F/R” means “firefly/Renilla”. This normalization eliminates differences in different cell numbers and transfection efficiencies in each well. The % Activation value is calculated. The % Activation value is calculated by the following formula.
X is the “F/R” value for each concentration point. The minimum value is the average “F/R” value for the no compound control. The maximum value is the average “F/R” value of the reference compound control. • 6.
Background: TR-FRET usually uses a lanthanide donor and a delayed reading to cut background.

In series [1] the target is T2, GST-labeled recombinant human FXR protein (Homo sapiens, UniProt Q96RI1).
T2 construct: purchased Invitroren (so in the source)
T2 sequence (Q96RI1 262-486 limits assumed): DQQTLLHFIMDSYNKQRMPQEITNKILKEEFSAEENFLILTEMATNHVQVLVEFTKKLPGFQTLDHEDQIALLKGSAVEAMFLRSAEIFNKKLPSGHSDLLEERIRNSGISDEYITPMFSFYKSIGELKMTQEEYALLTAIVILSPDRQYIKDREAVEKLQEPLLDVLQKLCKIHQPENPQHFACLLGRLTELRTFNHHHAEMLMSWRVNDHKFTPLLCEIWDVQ
T2 sequence (Q15788 676-700 partner limits assumed): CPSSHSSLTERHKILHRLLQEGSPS
Kind of series: Agonistic activity on FXR receptor (GST-FXR / SRC-1 bead assay, protein level). It counts as biochemical. The note with it: 0.4 nM FXR, 30 nM SRC-1, protein level. The protocol: Experimental procedures: FXR (GST-labeled recombinant human FXR protein, manufacturer: Invitroren, Item number: PV4835) and SRC-1 (steroid receptor co-activator-1) are thawed on ice. Three solutions of ABC are prepared by a buffer solution, solution A, 0.4 n M FXR and 30 nM SRC-1; solution B, 10 ug/ml Acceptor Beads; solution C, 10 ug/ml Donor Beads. Solution A is added to the plate at 15 uL per well. It is incubated at room temperature for 1 hour. Solution B is added to the plate at 7.5 uL per well. It is incubated at room temperature for 1 hour. Solution C is added to the plate at 7.5 uL per well. It is incubated at room temperature for 1 hour. It is read from the microplate reader Envision. The data are curve fitted by using Prism 5.0 to calculate the EC50.

Another series in a line: in vitro. As to conditions: human; for efflux ratio: Caco-2; for Papp B→A: Caco-2, Papp B-A; for recovery: Caco-2, Recovery rate A-B. The protocol:
The bi-directional transport of target compounds from apical side (AP) to basolateral side (BL) and from BL side to AP side is studied by using human colon adenocarcinoma cell line Caco-2 monolayer model. The transport parameters, apparent permeability coefficient (Papp) and efflux ratio are calculated by quantitative analysis with high performance liquid chromatography (HPLC).
For orientation: Caco-2 monolayers are a common model of the intestinal barrier.

[2] abbreviates: Caco-2, Papp, A-to-B values (highly permeable substrates).

Structures are written as SMILES. pEC50: −log10 of the molar value. A value given as a limit tells only on which side of the number the result lay.

Broadly, the pEC50 is −log10 of the EC50, conventionally taken in molar units. What is called efflux ratio is a quotient of directional permeabilities that is used to spot active efflux. The Papp A→B is how fast a substance crosses the layer from the apical side. In general, Papp B→A refers to how fast a substance crosses the layer from the basolateral side. Take `O=C(O)c1cccc(C2CC(O)(c3cnc(OCc4c(-c5c(Cl)cccc5Cl)noc4C4CC4)cn3)C2)c1` (stereo not drawn) [TM-01, 3-(3-(5-(5-cyclopropyl-3-(2,6-dichlorophenyl)isoxazole-4-ylmethoxy)-2-pyrazine)-1-hydroxycyclobutane) benzoic acid]: the pEC50 was 5.89 on FXR and 6.27 in series [1]. Moreover, in “in vitro”, the efflux ratio was 3.95. Moreover, the Papp A→B in the series “in vitro” (Caco-2, Papp A-B) is 82.5 nm/s; in “in vitro” (Caco-2, Papp A-B, Average), 81.7 nm/s; in the series “in vitro” (Caco-2, Papp A-B, Sample-01), 64.2 nm/s; in “in vitro” (Caco-2, Papp A-B, Sample-02), 99.1 nm/s; in “in vitro” (setting [2]), over 25 nm/s. In addition, in the series “in vitro”, the Papp B→A is 326 nm/s. Further, the recovery is 71.2% in the series “in vitro” (Average), 63.9% in “in vitro” (Sample-01) and 78.5% in “in vitro” (Sample-02).
In the case of `Cc1cc(C(=O)O)cc(C2CC(O)(c3cnc(OCc4c(-c5c(Cl)cccc5Cl)noc4C(C)C)cn3)C2)c1` (stereo not drawn) [TM-09, 3-(3-(5-((3-(2,6-dichlorophenyl)-5-isopropylisoxazol-4-yl)methoxy)pyrazine-2-yl)-3-hydroxycyclobutyl)-5-methyl benzoic acid], the figures for the pEC50 (at FXR; in series [1]) were 6.59 and 6.32, respectively. In “in vitro”, the efflux ratio is 4.22. The Papp A→B is 69.1 nm/s in “in vitro” (Caco-2, Papp A-B); 87.5 nm/s in the series “in vitro” (Caco-2, Papp A-B, Average); 84.6 nm/s in the series “in vitro” (Caco-2, Papp A-B, Sample-01); 90.5 nm/s in “in vitro” (Caco-2, Papp A-B, Sample-02); over 25 nm/s in “in vitro” (setting [2]). This molecule also yielded a Papp B→A in “in vitro” of 292 nm/s. Moreover, the values for the recovery in “in vitro” (Average), in the series “in vitro” (Sample-01) and in “in vitro” (Sample-02) were 81.4%, 80.9% and 82%, respectively.
For the molecule `CC(C)c1onc(-c2c(Cl)cccc2Cl)c1COc1cnc(C2(O)CC(c3cccc(C(=O)O)c3)C2)cn1` (stereo not drawn) [TM-06, 3-(3-(5-(5-isopropyl-3-(2,6-dichlorophenyl)isoxazole-4-ylmethoxy)-2-pyrazine)-1-hydroxycyclobutane) benzoic acid], the figures for the pEC50 (on FXR; in series [1]) were 5.75 and 5.62, respectively. Also, the efflux ratio in “in vitro” worked out at 5.12. Also, the Papp A→B was 75.4 nm/s in the series “in vitro” (Caco-2, Papp A-B); 71.7 nm/s in the series “in vitro” (Caco-2, Papp A-B, Average); 78.6 nm/s in “in vitro” (Caco-2, Papp A-B, Sample-01); 64.8 nm/s in the series “in vitro” (Caco-2, Papp A-B, Sample-02); over 25 nm/s in “in vitro” (setting [2]). Further, in the series “in vitro”, the Papp B→A worked out at 386 nm/s. Further, the results for the recovery in the series “in vitro” (Average), in the series “in vitro” (Sample-01) and in the series “in vitro” (Sample-02) were 74.2%, 81% and 67.3%, respectively.
As to `O=C(O)c1cccc(N2CC(O)(c3cnc(OCc4c(-c5c(Cl)cccc5Cl)noc4C4CC4)cn3)C2)c1` [TM-02, 3-(3-(5-((5-cyclopropyl-3-(2,6-dichlorophenyl)isoxazol-4-yl)methoxy)pyrazine-2-yl)-3-hydroxyazetidin-1-yl) benzoic acid], the pEC50 on FXR was 5.50; in series [1] it was 5.63. In the series “in vitro”, the efflux ratio was found to be 3.75. Further, the Papp A→B in the series “in vitro” (Caco-2, Papp A-B) was 88.7 nm/s; in the series “in vitro” (Caco-2, Papp A-B, Average), 90.2 nm/s; in the series “in vitro” (Caco-2, Papp A-B, Sample-01) it was 85.7 nm/s; in the series “in vitro” (Caco-2, Papp A-B, Sample-02) it was 94.7 nm/s; in “in vitro” (setting [2]), over 25 nm/s. The Papp B→A in the series “in vitro” is 333 nm/s. The recovery in “in vitro” (Average) was determined as 70.8%; in the series “in vitro” (Sample-01), 64.9%; in “in vitro” (Sample-02), 76.8%.
